Assay results as given in patent publication US12655458B2, “Methods for cyclization of (poly)peptides comprising nγ-hydroxy- or Nγ-amino-L-asparagine” (priority 2021, dated 2026).
“Also recorded” adds a separate entry of the source. Read-outs that look alike come from different tables or passages of the source. Starred links: 1 amine or outer side, 2 acyl side, 3 side chain; linkers in the order of their positions; H or OH if unused. Positions of bridges follow the written chain, without caps; N, C: chain ends. Non-standard residues stand in square brackets, D forms with d. Residues, ends and D or L forms follow the SMILES beside them. No end group written: not given here. *: point of attachment. N(NH2) = N-gamma-amino-L-asparagine, O=C(C[C@H](N[*:1])C(=O)[*:2])NN[*:3]; N(OH) = N-hydroxy-L-asparagine, O=C(C[C@H](N[*:1])C(=O)[*:2])NO; NHOH = ON*

Key:
[1] = enzyme bond, 37.0 °C
VyPAL2 = test: Kinetics of peptide cyclization by VyPAL2; assay type: biochemical; conditions: for Kcat / Km: cyclization by VyPAL2, 37° C., PBS pH 6.5
Protocol: (§1) Enzyme-meditated cyclization and ligation reactions were performed in 20 mM PBS buffer (pH 6.5) at 37° C. with 0.5 mM TCEP. The reaction was quenched by adding 20% TFA. The enzyme concentration was determined by the absorbance at 280 nm using Nanodrop. The reactions were monitored by reverse-phase analytical HPLC, and the products were characterized by MALDI-MS or ESI-MS.
(§2) Model peptides (1-6, see Table 51) were used in the kinetic studies. The cyclization reaction was performed in 20 mM PBS buffer (pH 6.5) containing 0.5 mM TCEP, at 37° C. The reaction was monitored by analytical RP-HPLC (5% buffer B-45% buffer B in 20 min). Kinetic constants for these peptides were obtained from the initial reaction rates. To ensure that the measurement of reaction rate was in the range of the initial velocity, the reaction was quenched using 20% TFA, when less than 25% of the substrate has been converted. Each recorded value is an average of measurements in triplicate. All the numbers were input into GraphPad Prism (GraphPad Software, San Diego) to obtain the Michaelis-Menten curve and calculate the kinetic parameters (kcat and Km).
VyPAL2 was expressed using sf9 insect cells as described previously (Hemu et al. PNAS, 2019, 116, 11737-11746). 100 mL of the viral vector containing VyPAL2 gene was used to infect sf9 cells at cell density of 2.5×10^6 cells/mL. MOI for infection was set between 1-10 for protein expression. The culture was incubated at 27° C. shaker for 3 days (72 hours) at 135 rpm. Protein purification was performed in three steps: Immobilized Metal Affinity Chromatography (IMAC), Ion-Exchange Chromatography (IEX), and Size-Exclusion chromatography (SEC). Pro-VyPAL2 was activated at pH 5 in 50 mM sodium citrate buffer (0.1 M NaCl, 1 mM DTT, 0.5 mM LS) for 2-3 h at 37° C. After activation, the activated enzyme was purified by SEC at pH 6.5 (20 mM PBS, 0.1 M NaCl, 1 mM DTT).

butelase-1 [2] = test: Kinetics of peptide cyclization by butelase-1; assay type: biochemical, Clitoria ternatea; conditions: for Kcat / Km: cyclization by butelase-1, 37° C., PBS pH 6.5
Protocol: as §1, §2
Plant flowers of Clitoria ternatea grown in the Nanyang Technological University Herb Garden were collected. Butelase-1 was extracted using a chromatography method described previously.^5 Purified butelase-1 was obtained and stored at 4° C. or −80° C. in 50 mM sodium phosphate buffer (pH 6.0) containing 1 mM EDTA, 5 mM β-mercaptoethanol, 0.01% Tween 20 and 20% sucrose.

butelase-1 [3] = test: Inhibitory activity assay of AN(Me)12-HV 7 on butelase-1 cyclization of pB1 peptide; assay type: biochemical, Clitoria ternatea; conditions: 200 μM pB1, 0.001 eq butelase-1, pH 6.5, 37° C., 10 min; increasing concentration of peptide 7
Protocol: FIG. 7. Inhibitory activity assay of AN(Me)12-HV 7. (a) RP-HPLC trace for cyclization of pB1 peptide ([…]; SEQ ID NO:13). The cyclization reaction was performed at 37° C. in the present of 200 μM of peptide substrates and 0.001 eq of butelase-1 in 20 mM PBS (pH 6.5) for 10 min. The reactions were monitored by RP-HPLC. The cyclic peptide is labelled as c[pB1] and starred HPLC peak is the potentially inhibitory peptide AN(Me)12-HV 7. […] (b) MALDI profiles of pB1 and AN(Me)12-HV 7 before and after treatment with butelase-1.
as §1

MMP2 = target: T1, MMP2 (Homo sapiens, UniProt P08253); test: MMPs inhibition assay (FRET substrate), MMP2; assay type: biochemical
T1 construct: purchased Sigma-Aldrich
T1 sequence (P08253 110-660): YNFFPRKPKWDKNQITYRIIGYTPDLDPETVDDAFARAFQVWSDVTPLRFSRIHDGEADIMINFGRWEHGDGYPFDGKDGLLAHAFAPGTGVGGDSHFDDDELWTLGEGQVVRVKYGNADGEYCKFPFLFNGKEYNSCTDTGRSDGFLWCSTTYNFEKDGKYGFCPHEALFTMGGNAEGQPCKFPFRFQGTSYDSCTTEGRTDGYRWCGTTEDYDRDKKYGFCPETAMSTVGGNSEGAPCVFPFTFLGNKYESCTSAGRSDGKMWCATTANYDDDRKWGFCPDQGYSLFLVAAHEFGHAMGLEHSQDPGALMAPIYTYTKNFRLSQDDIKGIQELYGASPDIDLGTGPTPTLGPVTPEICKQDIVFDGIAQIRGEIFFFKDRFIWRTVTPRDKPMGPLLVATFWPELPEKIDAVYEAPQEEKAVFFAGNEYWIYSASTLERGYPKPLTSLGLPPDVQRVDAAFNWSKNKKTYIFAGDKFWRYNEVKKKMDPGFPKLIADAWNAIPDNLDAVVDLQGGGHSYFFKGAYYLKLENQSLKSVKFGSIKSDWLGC
Protocol: The inhibitory activity of the peptides was determined by measuring the MMPs' protease activity towards a FRET substrate. 0.8 nM MMP2 or MMP9 (Sigma-Aldrich), 10 μM substrate (FAM-Lys-Pro-Leu-Gly-Leu-Lys(Dabcyl)-Ala-Arg-NH2, λex 490 nm; λem 520 nm) and various concentrations of the peptides (0.0001 μM-10 μM or 0.001 μM-100 μM) were used. The reactions were performed in 50 mM Tris-HCl buffer (pH 7.5) containing 150 mM NaCl, 10 mM CaCl2, 0.05% Brij35, at 37° C. MMP2 was pre-incubated with the peptide inhibitors for 10 min before adding the substrate. All the numbers were input into GraphPad Prism (GraphPad Software, San Diego) for IC50 calculation.

[4] = Stability in human serum by HPLC analysis; assay type: in vitro ADME; conditions: 37° C.
Protocol: Peptides were mixed with human serum to a final concentration of 100 μM and incubated at 37° C. Aliquots of the sample were taken out at different time points and 10% TFA was added to quench all protease activities, followed by addition of 10% of DMSO. The solution mixture was centrifuged (11,000 g, 5 min, 4° C.) and the supernatant was analysed by RP-HPLC (15% buffer B-65% buffer B in 25 min) and ESI-MS. The quantity of the remaining peptides was determined by comparing their HPLC peak area with the initial peak area.

butelase 1 = test: Butelase 1-mediated inter-peptide ligation with acyl acceptor GIRGI; assay type: biochemical, Clitoria ternatea; conditions: 400 uM peptide, 3.2 mM GIRGI, 0.01 eq butelase 1, pH 6.5, room temperature
Protocol: The reaction was conducted using 400 uM of Ac-KYSN(NH2)GL and 3.2 mM of GIRGI (8 eq) in the presence of 0.01 eq butelase 1 in 20 mM PBS buffer (pH 6.5) at room temperature. The ligation product was obtained in >80% yield in 1 h (FIG. 28, lower panel). The fact that Asn(NH2) can be recognized by butelase 1 as a P1 residue for inter-peptide ligation indicates it can also be used to mediate peptide cyclization (FIG. 27).

[5] = the molecule shown is the open-chain precursor, 102-membered ring, butelase-1 (0.01 eq), 20 mM PBS pH 6.5, 0.4 mM

Chain of VyPAL2 (as listed by the source): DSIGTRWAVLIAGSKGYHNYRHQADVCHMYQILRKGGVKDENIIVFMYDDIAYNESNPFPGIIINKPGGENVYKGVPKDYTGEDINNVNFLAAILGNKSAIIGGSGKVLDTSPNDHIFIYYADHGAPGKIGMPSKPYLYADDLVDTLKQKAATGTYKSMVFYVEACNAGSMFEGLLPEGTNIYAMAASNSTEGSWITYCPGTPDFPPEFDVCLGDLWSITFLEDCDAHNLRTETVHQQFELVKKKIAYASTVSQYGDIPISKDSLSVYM
Chain of butelase-1 (as listed by the source): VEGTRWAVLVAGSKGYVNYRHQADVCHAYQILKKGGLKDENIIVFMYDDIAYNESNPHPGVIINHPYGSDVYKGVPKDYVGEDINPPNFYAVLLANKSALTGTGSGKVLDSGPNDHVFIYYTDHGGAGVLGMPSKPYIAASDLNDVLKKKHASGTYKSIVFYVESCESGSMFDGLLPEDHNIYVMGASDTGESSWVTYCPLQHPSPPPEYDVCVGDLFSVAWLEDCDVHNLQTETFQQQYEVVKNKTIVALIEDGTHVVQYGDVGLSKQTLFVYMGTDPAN

Compound: H-Gly-Gly-Val-Cys-Pro-Lys-Ile-Leu-Lys-Lys-Cys-Arg-Arg-Asp-Ser-Asp-Cys-Pro-Gly-Ala-Cys-Ile-Cys-Arg-Gly-Asn-Gly-Tyr-Cys-Gly-Ser-Gly-Ser-Asn(OH)-Ile-Val-NH2?
- ring closure, conversion [1, 5]: 95%

Compound: AIYRRGRLYRRNSL [Peptide 4]
- Kcat (VyPAL2): 4.56 ± 0.24 s⁻¹
- Km (VyPAL2): 42.5 ± 8.83 µM

Compound: H-Gly-Arg-Cys-Thr-Lys-Ser-Ile-Pro-Pro-Ile-Cys-Phe-Pro-Asp-Ile-Val-NH2?
- ring closure, conversion ([1]; the molecule shown is the open-chain precursor, 42-membered ring, butelase-1 (0.01 eq), 20 mM PBS pH 6.5, 0.4 mM): 0%

Compound: AIYRRGRLYRRN(OH)SL (AIYRRGRLYRR[N(OH)]SL-NH2) [Peptide 5]
- catalytic efficiency of VyPAL2, fold higher than DSL peptide 6 (VyPAL2): 28 fold
- catalytic efficiency of VyPAL2, fold lower than NSL peptide 4 (VyPAL2): ~14 fold
- Kcat (VyPAL2): 0.942 ± 0.082 s⁻¹
- Km (VyPAL2): 120 ± 19.2 µM

Compound: AIYRRGRLYRRN(Me) HV [Peptide 7]
- recognition by butelase-1 as substrate for cyclization (butelase-1 [2]): not recognized
- inhibition of butelase-1 cyclization of pB1 peptide (butelase-1 [3]): nor did it inhibit the cyclization; also recorded: didn't affect the cyclization rate of pB1

Compound: AIYRRGRLYRRNHV [Peptide 1]
- Kcat (butelase-1 [2]): 14.86 ± 0.34 s⁻¹
- Km (butelase-1 [2]): 67.5 ± 2.8 µM

Compound: cyclo[SYCN(OH)CLCRRGVCRCICTI]
- ring closure, conversion ([1]; 54-membered ring, butelase-1 (0.04 eq), PBS pH 6.5, 0.1 mM): 60%

Compound: H-Gly-Leu-Pro-Val-Cys-Gly-Glu-Thr-Cys-Phe-Gly-Gly-Thr-Cys-Asn-Thr-Pro-Gly-Cys-Ser-Cys-Thr-Trp-Pro-Ile-Cys-Thr-Arg-Asp-Ile-Val-NH2?
- ring closure, conversion ([1]; the molecule shown is the open-chain precursor, 87-membered ring, butelase-1 (0.01 eq), 20 mM PBS pH 6.5, 0.4 mM): 0%

Compound: ISYGNDALMP-NH2 [Peptide 8, reference compound]
- Ki (MMP2): 60 nM
- metabolised at 32 min, 100 μM ([4]; in 32 min, read-out: degradation in human serum): > 50%

Compound: CC[C@H](C)[C@H](N)C(=O)N[C@@H](CO)C(=O)N[C@@H](Cc1ccc(O)cc1)C(=O)NCC(=O)N[C@@H](CC(N)=O)C(=O)N[C@@H](CC(=O)NO)C(=O)N[C@@H](C)C(=O)N[C@@H](CC(C)C)C(=O)N[C@@H](CCSC)C(=O)N1CCC[C@H]1C(N)=O [Peptide 9, ISYGNN(OH)ALMP] (H-ISYGND(NHOH)ALMP-NH2)
- improvement of MMP2 inhibitory activity over APP-IP 8 (MMP2; replacement of Asp by Asn(OH)): 2.6 fold

Compound: CC[C@H](C)[C@@H]1NC(=O)[C@H](CO)NC(=O)CNC(=O)[C@@H]2CCCN2C(=O)[C@H](CCSC)NC(=O)[C@H](CC(C)C)NC(=O)[C@H](C)NC(=O)[C@H](CC(=O)NO)NC(=O)[C@H](CCC(N)=O)NC(=O)CNC(=O)[C@H](Cc2ccc(O)cc2)NC(=O)[C@H](CO)NC1=O [Peptide 11, cyclo[SISYGQN(OH)ALMPG]] (cyclo(ALMPGSISYGQD(NHOH)))
- IC50 (MMP2; APP-IP-derived peptides, 0.8 nM MMP2, 10 μM substrate, pH 7.5, 37° C., read-out: IC50 towards MMP2): > 100000 nM
- Ki (MMP2; APP-IP-derived peptides, Ki=IC50/(1+[S]o/Km), read-out: Ki towards MMP2): > 100000 nM

Compound: AIYRRGRLYRRDHV [Peptide 3]
- Kcat (butelase-1 [2]): 0.454 ± 0.02 s⁻¹
- Km (butelase-1 [2]): 630 ± 19.5 µM

Compound: H-Gly-Gly-Val-Cys-Pro-Lys-Ile-Leu-Lys-Lys-Cys-Arg-Arg-Asp-Ser-Asp-Cys-Pro-Gly-Ala-Cys-Ile-Cys-Arg-Gly-Asn-Gly-Tyr-Cys-Gly-Ser-Gly-Ser-Asp-Ile-Val-NH2?
- ring closure, conversion [1, 5]: 0%

Compound: CC[C@H](C)[C@@H]1NC(=O)[C@@H]2CSSC[C@H](NC(=O)[C@H](CC(=O)NO)NC(=O)[C@@H]3CSSC[C@H](NC1=O)C(=O)N[C@@H]([C@@H](C)O)C(=O)N[C@@H]([C@@H](C)CC)C(=O)N[C@@H](CO)C(=O)N[C@@H](Cc1ccc(O)cc1)C(=O)N3)C(=O)N[C@@H](CC(C)C)C(=O)N[C@H]1CSSC[C@H](NC(=O)[C@H](C(C)C)NC(=O)CNC(=O)[C@H](CCCNC(=N)N)NC(=O)[C@H](CCCNC(=N)N)NC1=O)C(=O)N[C@@H](CCCNC(=N)N)C(=O)N2 [Peptide 17] (cyclo(CD(NHOH)CLCRRGVCRCICTISY); disulfide 1-14, 3-12, 5-10 (inferred); ring closure inferred)
- Ki (MMP2): 2.8 nM
- better MMP2 binding affinity than Asn-RTD-1 19 (MMP2): 13 fold
- better MMP2 binding affinity than Asp-RTD-1 18 (MMP2): 2.3 fold
- improvement of MMP2 Ki over linear Asn(OH)-APP-IP peptide 9 (MMP2): 8.2 fold
- more potent towards MMP2 than MMP9 (selectivity) (MMP2; MMP2 over MMP9): about 1000 fold
- stability in human serum ([4]; after 16 h): remained intact

Compound: Ac-KYSN(NH2)GL (Ac-KYS[N(NH2)]GL-NH2; SMILES CC(=O)N[C@@H](CCCCN)C(=O)N[C@@H](Cc1ccc(O)cc1)C(=O)N[C@@H](CO)C(=O)N[C@@H](CC(=O)NN)C(=O)NCC(=O)N[C@@H](CC(C)C)C(N)=O)
- acyl donor substrate in butelase 1-mediated ligation (butelase 1): good acyl donor substrate

Compound: AIYRRGRLYRRN(OH)HV (AIYRRGRLYRR[N(OH)]HV-NH2) [Peptide 2]
- catalytic efficiency of butelase-1, fold higher than DHV peptide 3 (butelase-1 [2]): 48 fold
- catalytic efficiency of butelase-1, fold lower than NHV peptide 1 (butelase-1 [2]): ~6 fold
- Kcat (butelase-1 [2]): 3.46 ± 0.27 s⁻¹
- Km (butelase-1 [2]): 98.8 ± 17.8 µM

Compound: AIYRRGRLYRRDSL [Peptide 6]
- Kcat (VyPAL2): 0.581 ± 0.09 s⁻¹
- Km (VyPAL2): 2070 ± 407 µM

Compound: c[FLaRGN(OH)FLaRGN(OH)]
- ring closure, conversion ([1]; 36-membered ring, butelase-1 (0.01 eq), 20 mM PBS pH 6.5, 0.4 mM): 90%
